Assay results: patent publication US10138261B2, “Ferrocenyl compounds” (The University of Birmingham, priority 2013, dated 2018)
Read-outs that look alike come from different tables or passages of the source.

Assays:
[1] = system: murine leukemia cells (L1210); assay: proliferation activity assay, L1210 cells; type: cell-based; settings: read-out: IC50 (50% inhibitory concentration) L1210
[2] = system: non-cancerous human T-lymphocyte cells (CEM); assay: proliferation activity assay, CEM cells; type: cell-based; settings: read-out: IC50 (50% inhibitory concentration) CEM
[3] = system: human cervix carcinoma cells (Hela); assay: proliferation activity assay, HeLa cells; type: cell-based; settings: read-out: IC50 (50% inhibitory concentration) HeLa
[4] = system: oesophageal cancer cell lines OE 19 and OE 33
[5] = system: Vaccinia virus; assay: microbe, parasite or virus in culture; type: cell-based; settings: read-out: EC50 (required to reduce virus-induced cytopathogenicity by 50%) Vaccinia virus
[6] = system: Vesicular stomatitis virus; assay: microbe, parasite or virus in culture; type: cell-based; settings: read-out: EC50 (required to reduce virus-induced cytopathogenicity by 50%) Vesicular stomatitis virus
[7] = system: Herpes simplex virus-1 TK^− KOS ACV^r; assay: microbe, parasite or virus in culture; type: cell-based; settings: read-out: EC50 (required to reduce virus-induced cytopathogenicity by 50%) Herpes simplex virus-1 TK^− KOS ACV^r
[8] = system: Herpes simplex virus-1 (KOS); assay: microbe, parasite or virus in culture; settings: Human alphaherpesvirus 1, HeLa, read-out: EC50 (required to reduce virus-induced cytopathogenicity by 50%) Herpes simplex virus-1 (KOS)
[9] = system: Herpes simplex virus-2 (G); assay: microbe, parasite or virus in culture; settings: Human alphaherpesvirus 2, HeLa, read-out: EC50 (required to reduce virus-induced cytopathogenicity by 50%) Herpes simplex virus-2 (G)
[10] = system: Hela cells; assay: minimum cytotoxic concentration in antiviral assay host cells (Table 2)
[11] = system: Herpes simplex virus-1 (KOS); settings: read-out: EC50 (required to reduce virus-induced cytopathogenicity by 50%) Herpes simplex virus-1 (KOS); Hela cells
[12] = system: Herpes simplex virus-2 (G); settings: read-out: EC50 (required to reduce virus-induced cytopathogenicity by 50%) Herpes simplex virus-2 (G); Hela cells
[13] = system: cells lacking (TK negative) or possessing (TK positive) the phosphorylation enzyme; settings: cell death curves, FIG. 3
[14] = even at higher concentrations of 25 μM
[15] = Vesicular stomatitis virus, HeLa

Molecule: 1-(Thyminyl-)ethyl-ferrocene [Compound 4]
- IC50 [1]: 417 µM
- IC50 [2]: 592 µM
- IC50 [3]: 509 µM
- inhibition of cell growth [4, 14]: ineffective at inhibiting cell growth

Molecule: 1-[2-(Adenin-9-yl)ethyl]-ferrocene [Compound 5]
- inhibition of cell growth [4, 14]: ineffective at inhibiting cell growth

Molecule: 1-[α-Methyl-(3-(hydroxy)propyl)]ferrocene [Compound 3]
- IC50 [1]: 12.3 µM
- IC50 [2]: 38.7 µM
- IC50 [3]: 45.2 µM
- inhibition of cell growth [4, 14]: ineffective at inhibiting cell growth

Molecule: Nc1nc2c(ncn2COCCO)c(=O)[nH]1 [Acyclovir]
- EC50 ([5]; Orthopoxvirus vaccinia, HeLa): > 250 µM
- EC50 [6, 15]: > 250 µM
- EC50 ([7]; Human alphaherpesvirus 1, HeLa): 50 µM

Molecule: O=c1[nH]c(=O)n([C@H]2C[C@H](O)[C@@H](CO)O2)cc1/C=C/Br [Brivudin]
- EC50 ([5]; Orthopoxvirus vaccinia, HeLa): 10 µM
- EC50 [6, 15]: > 250 µM
- EC50 ([7]; Human alphaherpesvirus 1, HeLa): 50 µM
- EC50 [8]: 0.02 µM
- EC50 [9]: 183 µM
- Minimum cytotoxic concentration (required to cause a microscopically detectable alteration of normal cell morphology) [10]: >250 μM

Molecule: Nc1ccn(C[C@@H](CO)OCP(=O)(O)O)c(=O)n1 [Cidofovir]
- EC50 ([5]; Orthopoxvirus vaccinia, HeLa): 17 µM
- EC50 [6, 15]: > 250 µM
- EC50 ([7]; Human alphaherpesvirus 1, HeLa): 0.9 µM
- EC50 [8]: 2 µM
- EC50 [9]: 2 µM
- Minimum cytotoxic concentration (required to cause a microscopically detectable alteration of normal cell morphology) [10]: >250 μM

Molecule: N.N.[Cl][Pt][Cl] [Cisplatin]
- IC50 [1]: 1 µM
- IC50 [2]: 0.9 µM
- IC50 [3]: 1.2 µM

Molecule: Nc1nc(O)c2ncn(COC(CO)CO)c2n1 [Ganciclovir]
- EC50 ([5]; Orthopoxvirus vaccinia, HeLa): > 100 µM
- EC50 [6, 15]: > 100 µM
- EC50 ([7]; Human alphaherpesvirus 1, HeLa): 10 µM

Molecule: (S,Rp)-1-[α-Methyl-(3-(hydroxy)propyl)]-2-[2-(-adenin-9-yl)ethyl]-ferrocene [Compound 2]
- inhibition of cell growth ([4]; 6.25 μM, 4-day experiment): inhibited cell growth

Molecule: (S,Rp)-1-[α-Methyl-(3-(hydroxy)propyl)]-2-[(thyminyl)ethyl]-ferrocene [Compound 1]
- IC50 [1]: 0.78 µM
- IC50 [2]: 0.9 µM
- IC50 [3]: 2.68 µM
- EC50 [5]: 21.6 µM
- EC50 [6]: 48 µM
- EC50 ([7]; Hela cells): 9.6 µM
- inhibition of cell growth ([4]; 6.25 μM, 4-day experiment): inhibited cell growth
- EC50 [11]: 2.4 µM
- EC50 [12]: 2.4 µM
- cell survival, TK negative versus TK positive cells [13]: the cells lacking the phosphorylation enzyme (TK negative) survive more than the cells that possess the phosphorylation enzyme (TK positive)
